The results in this text go back to patent publication US20100152188A1, “Novel Heterocyclic Compounds” (priority 2005, published 2010).

Where two headings read alike, the source gives them in different places.

Holding throughout (format): cell-based
Experiment [1] has as its system HCT116. Briefly: Anti-cancer screen (MTT), HCT116. As to conditions: Homo sapiens, HCT-116, 48 hours with compound, tested at 0.01-100 µM. How it is done: (§1) Experimental drugs are screened for anti-cancer activity in three cell lines for their GI50, TGI and LC50 values (using five concentrations for each compound). The cell lines are maintained in DMEM containing 10% fetal bovine serum. 96 well micro titer plates are inoculated with cells in 100 µL for 24 hours at 37° C., 5% CO2, 95% air and 100% relative humidity. 5000 HCT 116 cells/well, 5000 NCIH 460 cells/well and 5000 U251 cells/well are plated. A separate plate with these cell lines is also inoculated to determine cell viability before the addition of the compounds (T0).
(§2) Following 24-hour incubation, experimental drugs are added to the 96 well plates. Each plate contains one of the above cell lines and the following in triplicate: five different concentrations (0.01, 0.1, 1, 10 and 100 µM) of four different compounds, appropriate dilutions of a cytotoxic standard and control (untreated) wells. Compounds are dissolved in DMSO to make 20 mM stock solutions on the day of drug addition and frozen at −20° C. Serial dilutions of these 20 mM stock solutions are made in complete growth medium such that 100 µL of these drug solutions in medium, of final concentrations equaling 0.01, 0.1, 1, 10 and 100 µM can be added to the cells in triplicate. Standard drugs whose anti-cancer activity has been well documented and which are regularly used are doxorubicin and SAHA.
(§3) For T0 measurement, 24 hours after seeding the cells, 10 µL of 3-(4,5-Dimethyl-2-thiazolyl)-2,5-diphenyl-2H-tetrazolium (MTT) solution per well is added and incubation carried out for 3 hours at 37° C., 5% CO2, 95% air and 100% relative humidity, protected from light. Cells incubated with compounds for 48 hours are treated similarly except with the addition of 20 µl MTT solution per well and a subsequent incubation under the same conditions. After 3 hours of MTT incubation, well contents are aspirated carefully followed by addition of 150 µL DMSO per well. Plates are agitated to ensure solution of the formazan crystals in DMSO and absorbance read at 570 nm.
(§4) Percent growth is calculated for each compound's concentration relative to the control and zero measurement wells (T0; viability right before compound addition). If a test well's O.D. value is greater than the T0 measurement for that cell line
(§5) %Growth=(test−zero)/(control−zero)×100
(§6) If a test well's O.D. value is lower than the T0 measurement for that cell line, then,
(§7) %Growth=(test−zero)/zero×100

Experiment [2] deals with NCIH460, HCT116, MDAMB-231/U 251. Briefly: Anti-cancer screen, mean GI50 over the cell lines. The settings on record: in µM. Here is the method: as §1, §2, §3, §4
For experiment [3], the system named is MDAMB-231/U 251. Nature of the experiment: Anti-cancer screen (MTT), MDAMB-231/U 251. The settings on record: for CC50: read-out: MDAMB-231/U 251 LC50. How it is done: as §1, §2, §3, §4, §5, §6, §7
In experiment [4] the test system is NCIH460. Nature of the experiment: Anti-cancer screen (MTT), NCIH460. As to conditions: Homo sapiens, NCI-H460, 48 hours with compound, tested at 0.01-100 µM. Here is the method: as §1, §2, §3, §4, §5, §6, §7
The mark [5] stands for this setting: 48 hours with compound, MTT, tested at 0.01-100 µM.

In general, GI50 refers to the concentration at which growth is held to half of that of the control. For orientation: LC50 means the concentration lethal to half of the exposed cells or organisms. On to `O=C(NCc1ccc(C(=O)NO)cc1)OCc1c(F)cc(F)cc1F` [Example 38, 2,4,6-Trifluorobenzyl{4-[(hydroxyamino)carbonyl]benzyl}carbamate], for which, in experiment [1], the GI50 turned out to be 5 µM, the IC (TGI) is 20 µM and the LC50 (concentration giving 50% net cell kill relative to T0) turned out to be 65 µM. Also, the “Mean GI50” value in experiment [2] came out at 9.2. Further, the CC50 in experiment [3] (48 h) worked out at 68 µM. In experiment [3] (setting [5]), the GI50 is 0.5 µM and the IC (TGI) was found to be 8 µM. In experiment [4], the GI50 worked out at 22 µM, the IC (TGI) stood at 52 µM and the LC50 came out at 82 µM.

In the case of `O=C(NCc1ccc(C(=O)NO)cc1)OCCSc1nc2ccccc2s1` [Example 39, 2-(1,3-Benzothiazol-2-ylthio)ethyl{4-[(hydroxyamino)carbonyl]benzyl}carbamate], in experiment [1], the GI50 amounted to 5.5 µM, the IC (TGI) amounted to 10 µM and the LC50 (concentration giving 50% net cell kill relative to T0) was 62 µM. Moreover, the “Mean GI50” value in experiment [2] stood at 7.3. For the same molecule, the CC50 in experiment [3] (48 h) was determined as 65 µM. In experiment [3] (setting [5]), the GI50 was found to be 0.4 µM and the IC (TGI) was found to be 5 µM. In experiment [4], the GI50 worked out at 16 µM, the IC (TGI) stood at 54 µM and the LC50 came to 82 µM.

Consider `CNC(=O)c1ccc(CNC(=O)OCc2nc3ccccc3[nH]2)cc1` [Example 41, 1H-Benzimidazol-2-ylmethyl{4-[(methylamino)carbonyl]benzyl}carbamate], for which, in experiment [1], the GI50 turned out to be 58 µM, the IC (TGI) is above 100 µM and the LC50 (concentration giving 50% net cell kill relative to T0) is above 100 µM. The “Mean GI50” value in experiment [2] came out at 24.3. The CC50 in experiment [3] (48 h) is above 100 µM. In experiment [3] (setting [5]), the GI50 was determined as 9 µM and the IC (TGI) was above 100 µM. In experiment [4], the 50% growth inhibitory concentration (GI50) was 6 µM, the IC (TGI) is above 100 µM and the LC50 was above 100 µM.

In the case of `CNC(=O)c1ccc(CNC(=O)OCC2COc3ccccc3O2)cc1` (stereo not shown) [Example 42, 2,3-Dihydro-1,4-benzodioxin-2-ylmethyl{4-[(methylamino)carbonyl]benzyl}carbamate], in experiment [1], the GI50 was above 100 µM, the IC (TGI) is above 100 µM and the LC50 (concentration giving 50% net cell kill relative to T0) was above 100 µM. The “Mean GI50” value in experiment [2] is on record as above 100. For the same molecule, the CC50 in experiment [3] (48 h) was above 100 µM. In experiment [3] (setting [5]), the concentration for 50% growth inhibition (GI50) was found to be 0.7 µM and the IC (TGI) is above 100 µM. In experiment [4], the GI50 was above 100 µM, the IC (TGI) was above 100 µM and the LC50 was above 100 µM.

Consider `CONC(=O)c1ccc(CNC(=O)OCc2c(F)c(F)c(F)c(F)c2F)cc1` [Example 44, Pentafluorobenzyl(4-{[methoxyamino]carbonyl}benzyl)carbamate], for which, in experiment [1], the 50% growth inhibitory concentration (GI50) is 21 µM, the IC (TGI) was above 100 µM and the LC50 (concentration giving 50% net cell kill relative to T0) is above 100 µM. Further, in experiment [2], the “Mean GI50” value is listed as 22.67. In addition, in experiment [3] (48 h), the CC50 was above 100 µM. Also, in experiment [3] (setting [5]), the concentration for 50% growth inhibition (GI50) amounted to 5 µM and the IC (TGI) was determined as 9 µM. In experiment [4], the GI50 stood at 42 µM, the IC (TGI) is above 100 µM and the median lethal concentration (LC50) is above 100 µM.

In the case of `O=C(NCc1ccc(C(=O)Nc2nnc(C3CC3)s2)cc1)OCc1c(F)c(F)c(F)c(F)c1F` [Example 56, Pentafluorobenzyl(4-{[(5-cyclopropyl-1,3,4-thiadiazol-2-yl)amino]carbonyl}benzyl)carbamate], in experiment [1], the GI50 amounted to 0.5 µM, the IC (TGI) is above 100 µM and the LC50 (concentration giving 50% net cell kill relative to T0) was above 100 µM. In addition, in experiment [2], the “Mean GI50” value is 0.5. The CC50 in experiment [3] (48 h) was 65 µM. Besides, in experiment [3] (setting [5]), the GI50 is 0.8 µM and the IC (TGI) was 7 µM. Also, in experiment [4], the GI50 was determined as 0.3 µM, the IC (TGI) was 0.8 µM and the LC50 is above 100 µM.

Consider `O=C(NCc1ccc(C(=O)NCCO)cc1)OCc1cccs1` [Example 61, 2-Thienylmethyl(4-{[(2-hydroxyethyl)amino]carbonyl}benzyl)carbamate], for which, in experiment [1], the GI50 was above 100 µM, the IC (TGI) was above 100 µM and the LC50 (concentration giving 50% net cell kill relative to T0) is above 100 µM. Also, in experiment [2], the “Mean GI50” value was above 100. In addition, the CC50 in experiment [3] (48 h) was above 100 µM. Moreover, in experiment [3] (setting [5]), the GI50 is 65 µM and the IC (TGI) is above 100 µM. For the same molecule, in experiment [4], the GI50 is above 100 µM, the IC (TGI) is above 100 µM and the LC50 was above 100 µM.

For the molecule `O=C(NCc1ccc(C(=O)N2CCN(Cc3ccc4c(c3)OCO4)CC2)cc1)OCc1c(F)cc(F)cc1F` [Example 62, 2,4,6-Trifluorobenzyl(4-{[4-(1,3-benzodioxol-5-ylmethyl)piperazin-1-yl]carbonyl}benzyl)carbamate], in experiment [1], the GI50 is 3 µM, the IC (TGI) was above 100 µM and the LC50 (concentration giving 50% net cell kill relative to T0) was above 100 µM. The “Mean GI50” value in experiment [2] is reported as 1.7. For the same molecule, the CC50 in experiment [3] (48 h) was above 100 µM. Also, in experiment [3] (setting [5]), the GI50 is 2 µM and the IC (TGI) was 10 µM. In addition, in experiment [4], the GI50 came out at 0.1 µM, the IC (TGI) worked out at 8.5 µM and the LC50 is above 100 µM.

Consider `CC(=O)N(O)C(=O)Cc1csc(NC(=O)OCc2cc(Br)cs2)n1` [Example 79, (4-Bromo-2-thienyl)methyl(4-{2-[acetyl(hydroxy)amino]-2-oxoethyl}-1,3-thiazol-2-yl)carbamate], for which the GI50 in experiment [1] is 30 µM; in experiment [3] (setting [5]) it was 0.4 µM; in experiment [4], 30 µM. The IC (TGI) in experiment [1] turned out to be 65 µM; in experiment [3] (setting [5]) it was 52 µM; in experiment [4], 74 µM. The CC50 in experiment [1] (read-out: HCT116 LC50) is 95 µM; in experiment [3] (setting [5]), 100 µM. Also, the “Mean GI50” value in experiment [2] was determined as 20.1. In experiment [4], the LC50 was above 100 µM.

As to `O=C(CCCNC(=O)Cc1csc(NC(=O)OCc2cccnc2)n1)NO` [Example 88, Pyridin-3-ylmethyl[4-(2-{[4-(hydroxyamino)-4-oxobutyl]amino}-2-oxoethyl)-1,3-thiazol-2-yl]carbamate], in experiment [1], the GI50 is above 100 µM, the IC (TGI) was above 100 µM and the LC50 (concentration giving 50% net cell kill relative to T0) is above 100 µM. For the same molecule, in experiment [2], the “Mean GI50” value is recorded as above 100. In addition, the CC50 in experiment [3] (48 h) is above 100 µM. Moreover, in experiment [3] (setting [5]), the GI50 was determined as 6 µM and the IC (TGI) is above 100 µM. Besides, in experiment [4], the GI50 is above 100 µM, the IC (TGI) was above 100 µM and the LC50 was above 100 µM.

As for `O=C(CCCNC(=O)Cc1csc(NC(=O)OCc2c(F)c(F)c(F)c(F)c2F)n1)NO` [Example 92, Pentafluorobenzyl[4-(2-{[4-(hydroxyamino)-4-oxobutyl]amino}-2-oxoethyl)-1,3-thiazol-2-yl]carbamate], in experiment [1], the GI50 was above 100 µM, the IC (TGI) is above 100 µM and the LC50 (concentration giving 50% net cell kill relative to T0) was above 100 µM. In experiment [2], the “Mean GI50” value is on record as above 100. Further, the CC50 in experiment [3] (48 h) is above 100 µM. Besides, in experiment [3] (setting [5]), the GI50 was found to be 30 µM and the IC (TGI) is 50 µM. In experiment [4], the GI50 was above 100 µM, the IC (TGI) is above 100 µM and the LC50 is above 100 µM.

In the case of `O=C(CCCCCNC(=O)Cc1csc(NC(=O)OCc2c(F)c(F)c(F)c(F)c2F)n1)NO` [Example 94, Pentafluorobenzyl[4-(2-{[6-(hydroxyamino)-6-oxohexyl]amino}-2-oxoethyl)-1,3-thiazol-2-yl]carbamate], in experiment [1], the GI50 was determined as 23 µM, the IC (TGI) came to 62 µM and the LC50 (concentration giving 50% net cell kill relative to T0) worked out at 84 µM. For the same molecule, the “Mean GI50” value in experiment [2] was 25.66. The CC50 in experiment [3] (48 h) came out at 84 µM. In experiment [3] (setting [5]), the concentration for 50% growth inhibition (GI50) worked out at 19 µM and the IC (TGI) is 50 µM. In addition, in experiment [4], the concentration for 50% growth inhibition (GI50) came to 35 µM, the IC (TGI) stood at 67 µM and the 50% lethal concentration (LC50) is above 100 µM.

In the case of `O=C(CCCCCNC(=O)c1ccc(CNC(=O)OCc2cccs2)cc1)Nc1nnc(C2CC2)s1` [Example 103], in experiment [1], the GI50 was found to be 40 µM, the IC (TGI) was above 100 µM and the LC50 (concentration giving 50% net cell kill relative to T0) was above 100 µM. Further, the “Mean GI50” value in experiment [2] was 33.5. Further, the CC50 in experiment [3] (48 h) was 85 µM. For the same molecule, in experiment [3] (setting [5]), the GI50 came to 0.4 µM and the IC (TGI) was 18 µM. In experiment [4], the GI50 was determined as 60 µM, the IC (TGI) is above 100 µM and the LC50 was above 100 µM.
